Data reported in paper PMC6273811, “Synthesis and Antitumor Evaluation of Novel 5-Hydrosulfonyl-1H-benzo[d]imidazol-2(3H)-one Derivatives” (Molecules, 2016).
In brackets after ≈: the same amount, converted by molar mass.

Experiments:
[1] = tested on: MDA-MB-468; assay: MTT cell proliferation assay, MDA-MB-468; type: cell-based; details: Homo sapiens, 48 h, read-out: In vitro cytotoxic activity IC50, MDA-MB-48
Description: (§1) Compounds 5a–o were evaluated for their cytotoxic activity in vitro against some human cancer cell lines, including A549, HCC1937 and MDA-MB-468 by applying a MTT colorimetric assay. Doxorubicin was used as positive control. The calculated IC50 values were reported differently according to the different cancer cells.
(§2) All target compounds were evaluated for their cytotoxic activities (%) in vitro against human cancer cell lines, including A549, HCC1937 and MDA-MB-468, by applying the MTT colorimetric assay. The cell concentration was adjusted to 2 × 10^4/mL using complete culture medium, then 100 μL cell suspension was inoculated in each well of a 96-well culture plate and cultured for 24 h. All the target compounds were adjusted to different concentrations ranging from 1.25 μmol/L to 40 μmol/L, then 100 μL solution was added to each well of 96-well culture plate and 100 μL complete culture medium was added to the control group. Cells were placed under 5% CO2 at 37 °C and cultured for 48 h. Then 5 mg/mL MTT 20 μL was added to each well of 96-well culture plate and cultured for another 2~4 h. The medium was removed and 150 μL DMSO was added to each well of 96-well culture plate, then oscillated and mixed 15 min. The absorbance (A) of each well was measured in terms of optical density at a wavelength of 570 nm, each cell viability assay was performed in triplicate and taken the average value, then calculated the IC50. Doxorubicin was the positive control drug.

[2] = In vitro cytotoxic activity, Hek293; type: cell-based; details: human, Hek293 cells; unit inferred
From the text: Table 1 In vitro cytotoxic activity of target compounds: 5a–o. | column: Hek293

[3] = tested on: A549; assay: MTT cell proliferation assay, A549; type: cell-based; details: Homo sapiens, 48 h, read-out: In vitro cytotoxic activity IC50, A549
Description: as §1, §2

[4] = tested on: A549, HCC1937 and MDA-MB-468 cell lines; assay: MTT assay, statements over the three cell lines; type: cell-based, human; details: for IC50: Homo sapiens, range over the three cell lines and over 5a and 5b, read-out: IC50 toward the A549, HCC1937 and MDA-MB-468 cell lines; for Potency compared to 5a and 5b / Activity toward the cell lines (in words): SAR discussion
Description: as §1, §2

[5] = tested on: HCC1937; assay: MTT cell proliferation assay, HCC1937; type: cell-based; details: Homo sapiens, 48 h, read-out: In vitro cytotoxic activity IC50, HCC1937
Description: as §1, §2

[6] = tested on: HCC1937 cells; assay: Annexin V-FITC/PI flow cytometry apoptosis; type: cell-based, human; details: control 6.7%
Description: When the concentration of 5b was 7.5 μM, the proportion of apoptotic cells was 11.4%. When the concentration was 10 μM, the proportion of apoptotic cells was 13.4%. When the concentration was 15 μM, the proportion of apoptotic cells was 12.9%. When the concentration was 20 μM, the proportion of apoptotic cells was 29%. The proportion of apoptotic cells in control group was 6.7%. As the concentration increased, the number of apoptotic cells increased gradually and the number of apoptotic cells and concentration were directly proportional, although there was no significant difference between 10 μM and 15 μM.
The Annexin V-FITC apoptosis detection kit was used to detect apoptotic cells according to the manufacturer’s protocol. Briefly, cells were gently washed with PBS and collected using trypsinization, disaggregated to a single cell suspension and incubated with 5 μL of Annexin V-FITC and 10 μL of a PI solution for 15 min in the dark. The apoptotic cells were detected using a flow cytometer (BD, San Diego, CA, USA), then quantified and the percentage of apoptotic cells measured.

[7] = tested on: KM20L2; parameters: method as in PMID 9051914; details: cited from earlier work
[8] = tested on: SK-MEL-5; parameters: method as in PMID 9051914; details: cited from earlier work

| Structure (SMILES) | IC50 [1] [µM] | melting point [°C] | IC50 [2] [µM] | IC50 [3] [µM] | IC50 [4] [µM] | IC50 [5] [µM] | Proportion of apoptotic cells ([6]; HCC1937, 7.5 μM) [%] | Proportion of apoptotic cells ([6]; HCC1937, 10 μM) [%] | Proportion of apoptotic cells ([6]; HCC1937, 15 μM) [%] | Proportion of apoptotic cells ([6]; HCC1937, 20 μM) [%] | Potency compared to 5a and 5b [4] | Activity toward the cell lines (in words) [4] | ED50 [7] [µg/mL] | ED50 [8] [µg/mL] |
| --- | --- | --- | --- | --- | --- | --- | --- | --- | --- | --- | --- | --- | --- | --- |
| O=c1[nH]c2cc(S(=O)(=O)N3CCOCC3)ccc2n1Cc1ccccc1 [5a, Benzyl-5-(morpholinosulfonyl)-1H-benzo[d]imidazol-2(3H)-one] | 9 ± 0.67 | 198.5 to 200.1 | > 10000 | 5.2 ± 0.35 | 2.6 to 9 | 7.8 ± 0.49 | – | – | – | – | – | – | – | – |
| CN1CCN(S(=O)(=O)c2ccc3c(c2)[nH]c(=O)n3Cc2ccccc2)CC1 [5b, Benzyl-5-(4-methylpiperazin-1-ylsulfonyl)-1H-benzo[d]imidazol-2(3H)-one] | 6.3 ± 0.45 | 107.2 to 108.1 | 293 | 3.1 ± 0.17 | 2.6 to 9 | 2.6 ± 0.21 | 11.4 | 13.4 | 12.9 | 29 | – | – | – | – |
| O=c1[nH]c2cc(S(=O)(=O)NC3CCCCC3)ccc2n1Cc1ccccc1 [5c, Benzyl-N-cyclohexyl-2-oxo-2,3-dihydro-1H-benzo[d]imidazole-5-sulfonamide] | > 200 | 166.7 to 167.2 | 248 | 88 ± 6.1 | – | 105 ± 8.9 | – | – | – | – | equivalent to 10-fold inferior potency | – | – | – |
| O=c1[nH]c2cc(S(=O)(=O)N3CCCCC3)ccc2n1Cc1ccccc1 [5d, Benzyl-5-(piperidin-1-ylsulfonyl)-1H-benzo[d]imidazol-2(3H)-one] | 73 ± 6.9 | 189.4 to 190.5 | 756 | 77 ± 6.8 | – | 85 ± 7.1 | – | – | – | – | equivalent to 10-fold inferior potency | – | – | – |
| O=c1[nH]c2cc(S(=O)(=O)NCc3ccccc3)ccc2n1Cc1ccccc1 [5e, N,1-Dibenzyl-2-oxo-2,3-dihydro-1H-benzo[d]imidazole-5-sulfonamide] | > 200 | 160.6 to 185.9 | > 10000 | > 200 | – | 127 ± 9.9 | – | – | – | – | – | almost no activity | – | – |
| O=C(c1ccccc1)c1cccc(NS(=O)(=O)c2ccc3c(c2)[nH]c(=O)n3Cc2ccccc2)c1 [5f, N-(3-Benzoylphenyl)-1-benzyl-2-oxo-2,3-dihydro-1H-benzo[d]imidazole-5-sulfonamide] | 82 ± 6.1 | 85.2 to 86.3 | > 10000 | > 200 | – | > 200 | – | – | – | – | – | almost no activity | – | – |
| O=c1[nH]c2cc(S(=O)(=O)Nc3ccccc3)ccc2n1Cc1ccccc1 [5g, Benzyl-2-oxo-N-phenyl-2,3-dihydro-1H-benzo[d]imidazole-5-sulfonamide] | > 200 | 91.9 to 93.3 | 2000 | > 200 | – | 152 ± 9.8 | – | – | – | – | – | almost no activity | – | – |
| O=c1[nH]c2cc(S(=O)(=O)NC3CC3)ccc2n1Cc1ccccc1 [5h, Benzyl-N-cyclopropyl-2-oxo-2,3-dihydro-1H-benzo[d]imidazole-5-sulfonamide] | > 200 | 168.6 to 170.3 | 370 | > 200 | – | > 200 | – | – | – | – | – | almost no activity | – | – |
| CC(C)NS(=O)(=O)c1ccc2c(c1)[nH]c(=O)n2Cc1ccccc1 [5i, Benzyl-N-isopropyl-2-oxo-2,3-dihydro-1H-benzo[d]imidazole-5-sulfonamide] | > 200 | 173.4 to 174.7 | 709 | > 200 | – | > 200 | – | – | – | – | – | almost no activity | – | – |
| Cc1ccccc1NS(=O)(=O)c1ccc2c(c1)[nH]c(=O)n2Cc1ccccc1 [5j, Benzyl-2-oxo-N-o-tolyl-2,3-dihydro-1H-benzo[d]imidazole-5-sulfonamide] | > 200 | 223.6 to 225.7 | 666 | > 200 | – | > 200 | – | – | – | – | – | almost no activity | – | – |
| O=c1[nH]c2cc(S(=O)(=O)NC3CCCCC3)ccc2n1CCc1ccccc1 [5k, N-Cyclohexyl-2-oxo-1-phenethyl-2,3-dihydro-1H-benzo[d]imidazole-5-sulfonamide] | 135 ± 9.7 | 187 to 188.5 | 384 | 116 ± 7.6 | – | > 200 | – | – | – | – | – | – | – | – |
| CN1CCN(S(=O)(=O)c2ccc3c(c2)[nH]c(=O)n3CCc2ccccc2)CC1 [5l, 5-(4-Methylpiperazin-1-ylsulfonyl)-1-phenethyl-1H-benzo[d]imidazol-2(3H)-one] | 22 ± 1.6 | 218.2 to 219.6 | 6310 | 15 ± 1.1 | – | 18 ± 1.2 | – | – | – | – | – | – | – | – |
| O=c1[nH]c2cc(S(=O)(=O)NC3CC3)ccc2n1CCc1ccccc1 [5m, N-Cyclopropyl-2-oxo-1-phenethyl-2,3-dihydro-1H-benzo[d]imidazole-5-sulfonamide] | > 200 | 217.8 to 218.9 | 448 | > 200 | – | > 200 | – | – | – | – | – | – | – | – |
| O=c1[nH]c2cc(S(=O)(=O)N3CCCCC3)ccc2n1CCc1ccccc1 [5n, Phenethyl-5-(piperidin-1-ylsulfonyl)-1H-benzo[d]imidazol-2(3H)-one] | 12 ± 1.02 | 183.3 to 184.3 | > 10000 | 16 ± 0.9 | – | 22 ± 1.3 | – | – | – | – | – | – | – | – |
| O=c1[nH]c2cc(S(=O)(=O)N3CCOCC3)ccc2n1CCc1ccccc1 [5o, 5-(Morpholinosulfonyl)-1-phenethyl-1H-benzo[d]imidazol-2(3H)-one] | 15 ± 0.93 | 102.3 to 104.1 | > 10000 | 9.7 ± 0.88 | – | 11 ± 0.71 | – | – | – | – | – | – | – | – |
| O=C1N[C@H]2n3c(cc(Br)c3Br)C(=O)N3CCC[C@]23N1 [Dibromophakellstatin] | – | – | – | – | – | – | – | – | – | – | – | – | 0.11 (≈ 0.282 µM) | 0.11 (≈ 0.282 µM) |
| COc1cccc2c1C(=O)c1c(O)c3c(c(O)c1C2=O)C[C@@](O)(C(=O)CO)C[C@@H]3O[C@H]1C[C@H](N)[C@H](O)[C@H](C)O1 [Doxorubicin, reference compound] | 2.7 ± 0.19 | – | 12.2 | 2.5 ± 0.13 | – | 4.8 ± 0.22 | – | – | – | – | – | – | – | – |
